Assay results taken from patent US20220362276A1, “Small Molecule Inhibitors of Viral Replication” (The Trustees of Princeton University, priority 2019, published 2022).
“Also recorded” adds a separate entry of the source.

What was measured:
[1] = system: p6/Gluc (HEVΔORF2/3[Gluc]) replicon, KernowC1p6 genotype 3; experiment: Dose titration against p6/Gluc replicon in Huh7 cells, Gaussia luciferase readout; format: cell-based, hepatitis E virus
Experimental: Gaussia luciferase assays.
Statistics—calculation of IC50. Half maximal inhibitory concentrations were calculated by graphing dose-titration data as nonlinear curve fits with three parameters using GraphPad Prism (v8.1.2).

[2] = system: translation of T7-tagBFP-Gluc; experiment: Translation inhibition assay (T7-tagBFP-Gluc RNA in Huh7 cells); format: cell-based; conditions: 4 days
From the text: Generation of T7-tagBFP-Gluc. To make the T7-TagBFP-GLuc construct, SP6-TagBFP-2A-FLuc was used as a template and the primers PU-O-6099 and PU-O-6100 were designed to partially anneal immediately upstream and downstream of the SP6 promoter. The unbound portions of PU-O-6099 and PU-O-6100 contained the T7 promoter sequence. […] Next, PCR amplification of the T7-TagBFP-2A backbone was completed using the Q5® High-Fidelity DNA Polymerase and PU-O-6101 and PU-O-6102 as the primers. […] The Gluc insert was then ligated to the T7-TagBFP-2A backbone using the In-Fusion® HD Cloning Kit.
Translation Inhibition Assay. Huh7 cells were seeded at 6,250 cells per well in 96-well format. The cells were then transfected with 50 ng T7-TagBFP-Gluc in vitro transcribed RNA per well. Five hours post-transfection, transfection medium was changed to medium containing isocotoin, ribavirin, cycloheximide, or roclagamide at 6 or 7 different concentrations. DMSO concentration was kept constant in all the wells at 0.125%. For each drug dose, triplicate wells were tested. On day four post-transfection, a luciferase assay was performed on supernatant media to measure Gluc expression.

[3] = system: YFV17D-Gluc-BSD-Ires (YFV17D); format: cell-based, yellow fever virus 17-D vaccine strain
Sar55/Gluc (genotype 1) = experiment: Dose titration against Sar55/Gluc replicon
HSP90AA1 (Hsp90α1) = HSP90AA1 (Hsp90α1) (Homo sapiens, UniProt P07900); experiment: Two-dimensional thermal proteome profiling (CETSA) in crude cell extract; conditions: isocotoin 0.5-30 μM, 37-66.3 °C
HSP90AB1 (Hsp90β) = HSP90AB1 (Hsp90β) (Homo sapiens, UniProt P08238); experiment: as above; conditions: isocotoin 0.5-30 μM, 37-66.3 °C
HSP90AB1 (Hsp90β), sequence (P08238 whole entry): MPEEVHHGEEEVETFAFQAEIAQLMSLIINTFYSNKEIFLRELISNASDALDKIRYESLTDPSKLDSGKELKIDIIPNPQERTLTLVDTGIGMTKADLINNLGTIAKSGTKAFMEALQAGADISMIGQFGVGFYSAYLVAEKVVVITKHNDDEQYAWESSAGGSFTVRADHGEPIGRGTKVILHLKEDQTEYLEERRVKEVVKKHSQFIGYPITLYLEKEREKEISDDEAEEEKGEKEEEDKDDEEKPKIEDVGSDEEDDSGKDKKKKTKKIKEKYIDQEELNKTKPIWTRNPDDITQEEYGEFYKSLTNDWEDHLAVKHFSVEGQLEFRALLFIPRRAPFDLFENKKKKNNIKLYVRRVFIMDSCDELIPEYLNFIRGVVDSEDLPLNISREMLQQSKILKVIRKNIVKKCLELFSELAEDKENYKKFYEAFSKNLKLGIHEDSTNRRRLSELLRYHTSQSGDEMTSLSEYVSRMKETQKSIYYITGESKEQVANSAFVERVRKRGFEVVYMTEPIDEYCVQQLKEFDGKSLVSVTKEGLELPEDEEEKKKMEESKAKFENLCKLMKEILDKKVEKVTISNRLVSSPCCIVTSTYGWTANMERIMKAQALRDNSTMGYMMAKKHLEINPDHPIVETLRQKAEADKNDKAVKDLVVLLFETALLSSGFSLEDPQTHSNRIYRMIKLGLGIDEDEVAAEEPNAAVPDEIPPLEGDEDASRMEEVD

COc1cc(O)cc(O)c1C(=O)c1ccccc1 [isocotoin, 4-benzoyl-5-methoxybenzene-1,3-diol]
IC50 ([1]; Hepatitis E virus, Huh-7, 96 h): 6.1 µM | inhibition of p6/Gluc (HEV) replication, in words ([1]; Huh7 cells, supernatant Gluc): lower IC50 than ribavirin; also recorded: dose-dependent inhibitory effects; also recorded: dose-dependent inhibition; also recorded: more efficiently than ribavirin; also recorded: inhibits replication; also recorded: to a greater extent than ribavirin | effect on translation / Gluc levels, in words [2]: did not lead to a significant decrease in Gluc levels; also recorded: do not inhibit translation | inhibition of YFV17D replication, in words [3]: dose-dependent inhibitory effects; also recorded: to a greater extent than ribavirin | inhibition of Sar55/Gluc replication, in words (Sar55/Gluc (genotype 1)): lower IC50 than ribavirin; also recorded: inhibits replication | thermal stabilization / soluble protein fraction of HSP90AA1 (HSP90AA1 (Hsp90α1)): thermal stabilization; also recorded: among hits showing the greatest increase in soluble protein fraction | thermal stabilization / soluble protein fraction of HSP90AB1 (HSP90AB1 (Hsp90β)): thermal stabilization; also recorded: relatively modest, but identifiable increase
